Reference: patent US20060045953A1 (priority 2004, published 2006)

Target: T1, hT1R1/hT1R3 umami receptor (Homo sapiens, UniProt Q7RTX0+Q7RTX1)
T1 construct: expressed in transfected cells; host or cells: HEK293 derivative stably expressing Gα15, clone I-17, expression induced with mifepristone
T1 sequence (Q7RTX1 21-841): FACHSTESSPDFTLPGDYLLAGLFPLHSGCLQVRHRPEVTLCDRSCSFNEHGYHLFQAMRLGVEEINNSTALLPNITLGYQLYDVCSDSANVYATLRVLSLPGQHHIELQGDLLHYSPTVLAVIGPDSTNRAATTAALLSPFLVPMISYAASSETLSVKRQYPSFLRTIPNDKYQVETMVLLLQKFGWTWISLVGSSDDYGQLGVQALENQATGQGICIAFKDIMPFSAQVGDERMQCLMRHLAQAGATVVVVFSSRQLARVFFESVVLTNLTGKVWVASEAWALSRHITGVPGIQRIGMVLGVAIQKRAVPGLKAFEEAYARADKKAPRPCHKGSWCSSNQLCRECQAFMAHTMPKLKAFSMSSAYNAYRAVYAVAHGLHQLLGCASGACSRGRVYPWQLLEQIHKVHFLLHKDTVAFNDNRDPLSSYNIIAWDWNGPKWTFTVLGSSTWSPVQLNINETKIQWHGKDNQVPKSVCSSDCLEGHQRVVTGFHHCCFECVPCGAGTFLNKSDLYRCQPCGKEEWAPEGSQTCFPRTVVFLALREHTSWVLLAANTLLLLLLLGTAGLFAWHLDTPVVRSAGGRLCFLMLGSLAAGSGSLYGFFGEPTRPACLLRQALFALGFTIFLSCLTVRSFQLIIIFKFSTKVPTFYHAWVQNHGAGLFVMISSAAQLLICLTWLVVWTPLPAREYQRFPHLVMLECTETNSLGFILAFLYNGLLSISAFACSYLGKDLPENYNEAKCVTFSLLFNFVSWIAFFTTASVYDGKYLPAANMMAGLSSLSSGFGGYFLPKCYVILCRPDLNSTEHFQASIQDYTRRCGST
T1 sequence (Q7RTX0 21-852): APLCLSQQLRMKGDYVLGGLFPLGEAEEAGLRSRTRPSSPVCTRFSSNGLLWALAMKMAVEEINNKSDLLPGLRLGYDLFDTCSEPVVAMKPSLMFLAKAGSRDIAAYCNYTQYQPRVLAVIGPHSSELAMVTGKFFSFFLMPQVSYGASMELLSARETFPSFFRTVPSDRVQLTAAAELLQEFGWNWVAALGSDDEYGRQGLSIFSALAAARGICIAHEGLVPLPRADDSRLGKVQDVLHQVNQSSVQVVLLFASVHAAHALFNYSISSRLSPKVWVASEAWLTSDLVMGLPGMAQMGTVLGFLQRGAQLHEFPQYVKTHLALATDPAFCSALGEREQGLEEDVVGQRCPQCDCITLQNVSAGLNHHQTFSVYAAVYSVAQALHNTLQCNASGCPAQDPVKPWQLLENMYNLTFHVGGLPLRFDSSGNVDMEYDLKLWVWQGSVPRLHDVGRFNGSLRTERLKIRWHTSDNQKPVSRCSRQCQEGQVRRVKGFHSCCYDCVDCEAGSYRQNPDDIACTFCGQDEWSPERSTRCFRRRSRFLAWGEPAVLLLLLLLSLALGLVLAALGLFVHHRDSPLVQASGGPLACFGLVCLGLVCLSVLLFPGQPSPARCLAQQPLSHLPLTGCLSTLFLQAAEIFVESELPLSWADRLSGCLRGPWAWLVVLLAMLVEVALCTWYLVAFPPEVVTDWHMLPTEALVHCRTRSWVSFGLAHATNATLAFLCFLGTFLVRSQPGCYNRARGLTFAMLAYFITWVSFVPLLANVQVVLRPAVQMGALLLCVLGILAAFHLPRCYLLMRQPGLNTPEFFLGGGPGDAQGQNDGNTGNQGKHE
Test: In vitro hT1R1/hT1R3 umami taste receptor activation assay (FLIPR, dose response)
Type: cell-based
Conditions: Table A, Umami Amides; read-out: Umami EC50
Description: In order to identify new savory flavoring agents and enhancers, including compounds with savory agonist and enhancer activities (dual activity), the compounds of Formula (I) were screened in primary assays and secondary assays including compound dose response and enhancement assay. In a primary assay for potential ability to modulate umami taste, amide compounds of Formula (I) that can be either savory flavoring agents in their own right or flavor enhancers of MSG are identified and scores of their activities are given as percentage of the maximum MSG intensity (%). In compound dose response, an EC50 is calculated to reflect the potency of the compound as a savory agonist or enhancer.
An HEK293 cell line derivative (See e.g., Chandrashekar, et al., Cell (2000) 100: 703-711) which stably expresses Gα15 and hT1R1/hT1R3 under an inducible promoter (see WO 03/001876 A2) was used to identify compounds with savory tasting properties.
For dose-responses analysis, stimuli were presented in duplicates at 10 different concentrations ranging from 1.5 nM to 30 μM. Activities were normalized to the response obtained with 60 mM monosodium glutamate, a concentration that elicits maximum receptor response. […] Identical results were obtained when analyzing the dose-response data using commercially available software for non-linear regression analysis such as GraphPad PRISM (San Diego, Calif.).

Row | EC50 | SMILES
1 | 400 nM | COC(=O)C(CC(C)C)NC(=O)c1cc2ccccc2s1 (stereo in doubt) [Example A4, 2-[(Benzo[b]thiophene-2-carbonyl)-amino]-4-methyl-pentanoic acid methyl ester]
2 | 310 nM | COC(=O)C(CC(C)C)NC(=O)c1cc2ccccc2o1 (stereo in doubt) [Example A5, 2-[(Benzofuran-2-carbonyl)-amino]-4-methyl-pentanoic acid methyl ester]
3 | 320 nM | COC(=O)C(CC(C)C)NC(=O)c1cc2cc(OC)ccc2o1 (stereo in doubt) [Example A6, 2-[(5-Methoxy-benzofuran-2-carbonyl)-amino]-4-methyl-pentanoic acid methyl ester]

Same assay, conditions: opposite enantiomers compared; read-out: AFFINITY FOR T1R1/T1R3 SAVORY RECEPTOR EC50 UM

Row | EC50 | SMILES
4 | 10 nM | COc1cccc(C(=O)N[C@H]2CCCc3ccccc32)c1N
5 | 4530 nM | CCOc1ccc(C(=O)N[C@@H]2CCc3ccccc32)cc1C [(R)-N-(2,3-dihydro-1H-inden-1-yl)-4-ethoxy-3-methylbenzamide]
6 | 2130 nM | COc1ccc(C(=O)N[C@@H]2CCc3ccccc32)cc1C [(R)-N-(2,3-dihydro-1H-inden-1-yl)-4-methoxy-3-methylbeuzamide]

Same assay, conditions: read-out: EC50 for activation of a hT1R1/hT1R3 umami receptor expressed in an HEK293 cell line

Row | EC50 | SMILES
7 | 80 nM | COc1ccc2c(c1)CCC2NC(=O)c1ccc(OC)c(C)c1 (racemic) [Example 121-2, (R/S)-4-Methoxy-N-(5-methoxy-2,3-dihydro-1H-inden-1-yl)-3-methylbenzamide]
8 | 220 nM | CCCC(CC(C)C)NC(=O)c1ccc2c(c1)OCO2 (stereo not drawn) [Example 2, N-(2-methylheptan-4-yl)benzo[d][1,3]dioxole-5-carboxamide]
9 | 610 nM | CCCC(NC(=O)c1ccc2c(c1)OCO2)C(C)C (stereo not drawn) [Example 3, N-(2-methylhexan-3-yl)benzo[d][1,3]dioxole-5-carboxamide]
10 | 450 nM | CC1CCCC(NC(=O)c2ccc3c(c2)OCO3)C1C (stereo not drawn) [Example 4, N-(2,3-dimethylcyclohexyl)benzo[d][1,3]dioxole-5-carboxamide]
11 | 570 nM | CCC(CC(C)C)NC(=O)c1ccc2c(c1)OCO2 (stereo not drawn) [Example 5, N-(5-methylhexan-3-yl)benzo[d][1,3]dioxole-5-carboxamide]
12 | 710 nM | O=C(NC1CCCc2ccccc21)c1ccc2c(c1)OCO2 (stereo not drawn) [Example 7, N-(1,2,3,4-tetrahydronaphthalen-1-yl)benzo[d][1,3]dioxole-5-carboxamide]
13 | 9000 nM | CC(C)C[C@H](CO)NC(=O)c1ccc2c(c1)OCO2 [Example 8, (R)-N-(1-hydroxy-4-methylpentan-2-yl)benzo [d][1,3]dioxole-5-carboxamide]
14 | 3500 nM | COC[C@@H](CC(C)C)NC(=O)c1ccc2c(c1)OCO2 [Example 9, (R)-N-(1-methoxy-4-methylpentan-2-yl)benzo[d][1,3]dioxole-5-benzo[d][1,3]dioxole-5-carboxylic acid]
15 | 1160 nM | COC(=O)[C@H](NC(=O)c1ccc2c(c1)OCO2)C(C)C [Example 10, (R)-methyl 2-(benzo[d][1,3]dioxole-6-carboxamido)-3-methylbutanoate]
16 | 10900 nM | CC(C)CC(COP(=O)(O)O)NC(=O)c1ccc2c(c1)OCO2 (stereo not drawn) [Example 11, 2-(benzo[d][1,3]dioxole-6-carboxamido)-4-methylpentyl dihydrogen phosphate]
17 | 120 nM | CCCC(CC)NC(=O)c1ccc(OC)c(C)c1 (stereo not drawn) [Example 12, N-(hexan-3-yl)-4-methoxy-3-methylbenzamide]
18 | 1060 nM | CC(C)C[C@@H](NC(=O)c1ccc2c(c1)OCO2)C(=O)N(C)C [Example 13, (R)-N-(1-(dimethylamino)-4-methyl-1-oxopentan-2-yl) benzo[d][1,3]dioxole-5-carboxamide]
19 | 11900 nM | CCCC(COC(C)=O)NC(=O)c1ccc2c(c1)OCO2 (stereo not drawn) [Example 14, 2-(benzo[d][1,3]dioxole-6-carboxamido)pentyl acetate]
20 | 1700 nM | CC(C)C[C@@H](NC(=O)c1ccc2c(c1)OCO2)C(=O)NCCc1cccnc1 [Example 15, (R)-N-(4-methyl-1-oxo-1-(2-(pyridin-3-yl)ethylamino)pentan-2-yl)benzo[d][1,3]dioxole-5-carboxamide]
21 | 3000 nM | CC(C)C[C@@H](NC(=O)c1ccc2c(c1)OCO2)C(=O)N1CCCC1CO (stereo partly drawn) [Example 16, N-((R)-1-(2-(hydroxymethyl)pyrrolidin-1-yl)-4-methyl-1-oxopentan-2-yl)benzo[d][1,3]dioxole-5-carboxamide]
22 | 110 nM | CCCC(CCC)NC(=O)c1cc2c(cc1C)OCO2 [Example 17, N-(heptan-4-yl)-6-methylbenzo[d][1,3]dioxole-5-carboxamide]
23 | 100 nM | CCCC(CCC)NC(=O)c1ccc2c(c1)OC(C)O2 (stereo not drawn) [Example 18, N-(heptan-4-yl)-2-methylbenzo[d][1,3]dioxole-5-carboxamide]
24 | 14000 nM | CCCC(CCC)NC(=O)c1ccc2c(c1)OC(CC(=O)OCC)O2 (stereo not drawn) [Example 19, Ethyl 2-(5-(heptan-4-ylcarbamoyl)benzo[d][1,3]dioxol-2-yl)acetate]
25 | 2700 nM | CCCC(CCC)NC(=O)c1ccc2c(c1)OC(C)(C)O2 [Example 20, N-(heptan-4-yl)-2,2-dimethylbenzo[d][1,3]dioxole-5-carboxamide]
26 | 11500 nM | CCCC(CCC)NC(=O)c1ccc2c(c1)OC(C(C)C)O2 (stereo not drawn) [Example 21, N-(heptan-4-yl)-2-isopropylbenzo[d][1,3]dioxole-5-carboxamide]
27 | 1510 nM | CCCC(CCC)NC(=O)c1ccc2c(c1)OC(F)(F)O2 [Example 22, 2,2-difluoro-N-(heptan-4-yl)benzo[d][1,3]dioxole-5-carboxamide]
28 | 490 nM | CCCC(CCC)NC(=O)c1ccc2c(c1)OCCO2 [Example 23, 2,3-Dihydro-benzo[1,4]dioxine-6-carboxylic acid (1-propyl-butyl)-amide]
29 | 6400 nM | CCCC(CCC)NC(=O)c1ccc2c(c1)OCCCO2 [Example 24, N-(heptan-4-yl)-3,4-dihydro-2H-benzo[b][1,4]dioxepine-7-carboxamide]
30 | 880 nM | CCCC(CCC)NC(=O)c1cc2ccccc2o1 [Example 25, benzofuran-2-carboxylic(1-propylbutyl)amide]
31 | 110 nM | COC(=O)[C@@H](CC(C)C)NC(=O)c1cc2cc(C)ccc2o1 [Example 27, (R)-methyl 4-methyl-2-(5-methylbenzofuran-2-carboxamido)pentanoate]
32 | 740 nM | CCCC(CC)NC(=O)c1cc2cc(C)ccc2o1 (stereo not drawn) [Example 28, N-(hexan-3-yl)-5-methylbenzofuran-2-carboxamide]
33 | 400 nM | CCCC(CC)NC(=O)c1cc2cc(OC)ccc2o1 (stereo not drawn) [Example 29, N-(hexan-3-yl)-5-methoxybenzofuran-2-carboxamide]
